Consider one compound from patent publication US7589167B2, “ZA loops of bromodomains” (J. David Gladstone Institutes, priority 2000, dated 2009).

This experiment concerns the target T1, P/CAF bromodomain (Homo sapiens, UniProt Q92831, P804A/P805A).
T1 construct: poly-His (N, cleaved yes); made in house; host or cells: Escherichia coli BL21(DE3)
T1 sequence (Q92831 719-832 P804A/P805A): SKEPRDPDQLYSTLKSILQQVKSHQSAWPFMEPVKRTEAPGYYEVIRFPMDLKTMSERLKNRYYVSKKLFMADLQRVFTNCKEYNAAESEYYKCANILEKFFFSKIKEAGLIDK
The experiment can be described thus: Peptide competition assay with biotinylated wild type Tat AcK50 peptide (western blot). It is filed as binding. The following applies: protein ~10 μM, wild type:mutant peptide 1:2.

Where a SMILES comes first, the peptide text is derived from it.

Description: Peptide binding assay. […] Streptavidin agarose (10 μL) was added to mixture and the beads were washed twice in the Tris buffer with 500 mM NaCl and 0.1% NP-40. Proteins were eluted from the argarose beads in SDS buffer and separated on a 14% SDS-PAGE. The resolved proteins were transferred onto nitrocellulose membrane (Pharmacia), and the membrane was blocked overnight with 5% non-fat milk in washing buffer of 20 mM Tris, pH 7.5, plus 150 mM NaCl and 0.1% Tween-20 at 4° C. Western blotting was performed with anti-GST antibody (Sigma) and goat anti-rabbit IgG conjugated with horseradish-peroxidase (Promega) and developed by chemiluminescence. Peptide competition experiments were performed by incubating various non-biotinylated and mutant Tat peptide with the P/CAF bromodomain and the biotinylated and wild type Tat peptide. The molar ratio of the wild type and mutant Tat peptides in the mixture were kept at 1:2. The binding results were analyses by using the procedure as described above.

As for `CC(=O)NCCCC[C@H](NC(=O)[C@H](CCCCN)NC(=O)[C@H](CS)NC(=O)[C@H](Cc1ccc(O)cc1)NC(=O)[C@H](CS)NC(=O)[C@H](CC(N)=O)NC(=O)[C@@H](N)[C@@H](C)O)C(=O)N[C@@H](CS)C(=O)N[C@@H](CS)C(=O)N[C@@H](Cc1ccccc1)C(=O)N[C@@H](Cc1c[nH]cn1)C(=O)O` [Tat AcK 28 peptide, TNCYCK-AcK-CCFH] (H-TNCYCKK(Ac)CCFH-OH), the “competition with / binding relative to Tat AcK50 peptide (qualitative)” value was “almost no competition”.
